Results published in paper PMC9948186 (ACS Omega, 2023).

Target: T1, Microtubule affinity regulatory kinase 4 (MARK4) (Homo sapiens, UniProt Q96L34)
T1 sequence (Q96L34 1-752): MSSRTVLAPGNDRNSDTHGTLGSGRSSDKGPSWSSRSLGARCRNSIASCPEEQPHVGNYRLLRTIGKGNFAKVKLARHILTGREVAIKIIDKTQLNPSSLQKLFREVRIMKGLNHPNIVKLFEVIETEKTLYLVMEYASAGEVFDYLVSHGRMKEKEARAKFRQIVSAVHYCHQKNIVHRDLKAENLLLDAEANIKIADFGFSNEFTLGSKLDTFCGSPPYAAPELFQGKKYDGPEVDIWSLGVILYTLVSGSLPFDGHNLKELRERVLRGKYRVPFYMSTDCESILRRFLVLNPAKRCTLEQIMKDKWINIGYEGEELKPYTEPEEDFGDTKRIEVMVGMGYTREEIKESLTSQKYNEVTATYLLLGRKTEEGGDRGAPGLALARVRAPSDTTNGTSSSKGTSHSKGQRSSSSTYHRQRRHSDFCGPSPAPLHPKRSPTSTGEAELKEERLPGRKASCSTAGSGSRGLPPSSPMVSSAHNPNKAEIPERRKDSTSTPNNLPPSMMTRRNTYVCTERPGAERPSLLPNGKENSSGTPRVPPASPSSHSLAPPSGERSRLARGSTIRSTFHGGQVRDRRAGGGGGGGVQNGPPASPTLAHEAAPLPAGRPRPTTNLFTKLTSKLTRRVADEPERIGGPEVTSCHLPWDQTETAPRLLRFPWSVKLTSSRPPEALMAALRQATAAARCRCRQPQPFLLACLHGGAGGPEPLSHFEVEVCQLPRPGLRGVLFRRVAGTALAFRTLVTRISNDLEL
Test: malachite green ATPase
Format: biochemical

For `OC[C@H]1O[C@@H](c2ccc(Cl)c(Cc3ccc(O[C@H]4CCOC4)cc3)c2)[C@H](O)[C@@H](O)[C@@H]1O` [empagliflozin], the IC50 was 7.1 µM.
In the case of `CC#CCn1c(N2CCC[C@@H](N)C2)nc2c1c(=O)n(Cc1nc(C)c3ccccc3n1)c(=O)n2C` [linagliptin], the IC50 is reported as 7.63 µM.
